The test concerns P388 leukemia ip, CD2F1 mice, survival T/C. In words: NCI In Vivo Anticancer Drug Screen. Data for tumor model P388 Leukemia (intraperitoneal) in CD2F1 (CDF1) mice. Particulars: endpoint: median survival time, higher = longer survival. The procedure, abridged: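 Mice carrying the transplanted tumor received test compound or vehicle. Survival was recorded in each group, and the value is the treated-group measurement divided by that of the vehicle-treated control group.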

[1] abbreviates: dose: 50.0 mg/kg/injection, schedule: Q01DX005 (ip), vehicle: Klucel (hydroxypropylcellulose) (HPC).
Setting [2] is: dose: 100.0 mg/kg/injection, schedule: Q01DX005 (ip), vehicle: Klucel (hydroxypropylcellulose) (HPC).
Setting [3] is: dose: 200.0 mg/kg/injection, schedule: Q01DX005 (ip), vehicle: Klucel (hydroxypropylcellulose) (HPC).
Setting [4] is: dose: 100.0 mg/kg/injection, schedule: Q01DX009 (ip), vehicle: saline with Tween-80.
Setting [5] is: dose: 200.0 mg/kg/injection, schedule: Q01DX009 (ip), vehicle: saline with Tween-80.
Setting [6] is: dose: 60.0 mg/kg/injection, schedule: Q01DX005 (ip), vehicle: saline with Tween-80.
Where [7] appears, read: dose: 120.0 mg/kg/injection, schedule: Q01DX005 (ip), vehicle: saline with Tween-80.
Where [8] appears, read: dose: 240.0 mg/kg/injection, schedule: Q01DX005 (ip), vehicle: saline with Tween-80.

Here are results for 19 compounds from PubChem BioAssay AID330 (DTP/NCI, 2004).

Where “and” joins values, the source holds several entries; their conditions need not be identical. Identical values can stand only once. Toxic doses and inconclusive results are not listed.

On to `CC[C@@]12C[C@H]3CN(CCc4c([nH]c5ccccc45)[C@@](C(=O)OC)(c4cc5c(cc4OC)N(C)[C@H]4[C@@](O)(C(=O)OC)[C@H](OC(C)=O)[C@]6(CC)C=CCN7CC[C@]54[C@@H]76)C3O1)C2` (stereo partly drawn), for which the T/C is 103 % of control (dose: 0.5 mg/kg/injection, schedule: Q01DX001 (ip), vehicle: distilled water + Tween-80); 98 % of control (dose: 0.5 mg/kg/injection, schedule: Q01DX001 (ip), vehicle: water); 100 % of control and 101 % of control (dose: 1.0 mg/kg/injection, schedule: Q01DX001 (ip), vehicle: distilled water + Tween-80); 96 % of control (dose: 1.0 mg/kg/injection, schedule: Q01DX001 (ip), vehicle: water); 176 % of control (dose: 1.0 mg/kg/injection, schedule: Q01DX009 (ip), vehicle: distilled water + alcohol); 100 % of control (dose: 2.0 mg/kg/injection, schedule: Q01DX001 (ip), vehicle: distilled water + Tween-80). Further, the T/C runs as follows: (dose: 2.0 mg/kg/injection, schedule: Q01DX001 (ip), vehicle: water) 97 % of control; (dose: 2.0 mg/kg/injection, schedule: Q01DX009 (ip), vehicle: distilled water + alcohol) 176 % of control; (dose: 4.0 mg/kg/injection, schedule: Q01DX001 (ip), vehicle: distilled water + Tween-80) 100 % of control and 108 % of control; (dose: 4.0 mg/kg/injection, schedule: Q01DX001 (ip), vehicle: water) 105 % of control; (dose: 4.0 mg/kg/injection, schedule: Q01DX009 (ip), vehicle: distilled water + alcohol) 168 % of control; (dose: 8.0 mg/kg/injection, schedule: Q01DX001 (ip), vehicle: distilled water + Tween-80) 100 % of control and 93 % of control. The T/C (dose: 8.0 mg/kg/injection, schedule: Q01DX001 (ip), vehicle: water) was 108 % of control; the T/C (dose: 16.0 mg/kg/injection, schedule: Q01DX001 (ip), vehicle: distilled water + Tween-80) is 96 % of control; the T/C (dose: 32.0 mg/kg/injection, schedule: Q01DX001 (ip), vehicle: distilled water + Tween-80) is 102 % of control.
On to `COCOc1cccc2c1CCC2`, for which the T/C was 100 % of control (dose: 50.0 mg/kg/injection, schedule: Q01DX005 (ip), vehicle: saline with Tween-80); 100 % of control (dose: 100.0 mg/kg/injection, schedule: Q01DX005 (ip), vehicle: saline with Tween-80); 100 % of control (dose: 200.0 mg/kg/injection, schedule: Q01DX005 (ip), vehicle: saline with Tween-80).
For `CC(Cc1ccccc1)NC(=O)c1cccnc1` (stereo not drawn), the T/C is, setting by setting: under setting [1], 98 % of control; under setting [2], 90 % of control; under setting [3], 99 % of control.
On to `CCOC(=O)[C@]12CCC[C@@]1(O)NC(=O)c1cnccc12`, for which the T/C by setting is: (dose: 100.0 mg/kg/injection, schedule: Q04DX003 (ip), vehicle: saline with Tween-80) 100 % of control; (dose: 200.0 mg/kg/injection, schedule: Q04DX003 (ip), vehicle: saline with Tween-80) 97 % of control; (dose: 400.0 mg/kg/injection, schedule: Q04DX003 (ip), vehicle: saline with Tween-80) 93 % of control.
As to `O=C(CCCN1CCC(O)(c2cccc(C(F)(F)F)c2)CC1)c1ccc(F)cc1`, the T/C by setting is: (dose: 18.75 mg/kg/injection, schedule: Q04DX003 (ip), vehicle: Klucel (hydroxypropylcellulose) (HPC)) 108 % of control; (dose: 37.5 mg/kg/injection, schedule: Q04DX003 (ip), vehicle: Klucel (hydroxypropylcellulose) (HPC)) 112 % of control; (dose: 75.0 mg/kg/injection, schedule: Q04DX003 (ip), vehicle: Klucel (hydroxypropylcellulose) (HPC)) 88 % of control.
For the compound `CCCC(=O)C(=O)c1ccc(O)cc1O`, the T/C runs as follows: (dose: 50.0 mg/kg/injection, schedule: Q01DX009 (ip), vehicle: Klucel (hydroxypropylcellulose) (HPC)) 108 % of control; (dose: 100.0 mg/kg/injection, schedule: Q01DX009 (ip), vehicle: Klucel (hydroxypropylcellulose) (HPC)) 116 % of control; (dose: 200.0 mg/kg/injection, schedule: Q01DX009 (ip), vehicle: Klucel (hydroxypropylcellulose) (HPC)) 119 % of control.
Take `COc1ccc2c(c1)Oc1c(Cl)c3c(c(Cl)c1=N2)Oc1cc(OC)ccc1N=3`: the T/C by setting is: (dose: 100.0 mg/kg/injection, schedule: Q01DX001 (ip), vehicle: saline with Tween-80) 89 % of control; (dose: 200.0 mg/kg/injection, schedule: Q01DX001 (ip), vehicle: saline with Tween-80) 89 % of control; (dose: 400.0 mg/kg/injection, schedule: Q01DX001 (ip), vehicle: saline with Tween-80) 115 % of control.
Consider `O=C(NCCc1nc(-c2nc(C(=O)O)cs2)cs1)c1ccccc1`, for which the T/C by setting is: under setting [4], 100 % of control; under setting [5], 100 % of control; (dose: 400.0 mg/kg/injection, schedule: Q01DX009 (ip), vehicle: saline with Tween-80) 90 % of control.
Turning to `CN=c1nc2n3c(cccc3n1)NC(C)=N2`, the T/C is, setting by setting: under setting [6], 100 % of control; under setting [7], 92 % of control; under setting [8], 99 % of control.
For the compound `COc1ccc(Cc2noc(=O)[nH]2)cc1`, the T/C is 104 % of control (dose: 50.0 mg/kg/injection, schedule: Q01DX009 (ip), vehicle: saline with Tween-80); 104 % of control under setting [4]; 106 % of control under setting [5].
For `Cc1ccc2cccc(CC(=O)NN)c2c1`, the T/C is 104 % of control under setting [6] and 97 % of control under setting [7].
With `CC(C)=NN(C)/C=N/S(=O)(=O)c1ccccc1`, the T/C reads like this: under setting [1], 100 % of control; under setting [2], 97 % of control; under setting [3], 98 % of control.
For `C[C@@H]1C(=O)CC23COC(=O)C2=CCCC3[C@@]1(C)CCC1COC(=O)C1` (stereo partly drawn), the T/C runs as follows: (dose: 12.5 mg/kg/injection, schedule: Q01DX005 (ip), vehicle: distilled water + alcohol) 100 % of control; (dose: 25.0 mg/kg/injection, schedule: Q01DX005 (ip), vehicle: distilled water + alcohol) 100 % of control; (dose: 50.0 mg/kg/injection, schedule: Q01DX005 (ip), vehicle: distilled water + alcohol) 106 % of control; (dose: 60.0 mg/kg/injection, schedule: Q01DX005 (ip), vehicle: distilled water + alcohol) 101 % of control; (dose: 100.0 mg/kg/injection, schedule: Q01DX005 (ip), vehicle: distilled water + alcohol) 107 % of control; (dose: 120.0 mg/kg/injection, schedule: Q01DX005 (ip), vehicle: distilled water + alcohol) 108 % of control. Moreover, the T/C (dose: 240.0 mg/kg/injection, schedule: Q01DX005 (ip), vehicle: distilled water + alcohol) is 110 % of control.
As for `O=C1CCC(c2n[nH]c(=S)n2-c2ccccc2)N1` (stereo not drawn), the T/C under setting [6] is 100 % of control, the T/C under setting [7] was 97 % of control and the T/C under setting [8] was 94 % of control.
Take `CCOc1c(N=Nc2ccc(O)cc2)c(C)nn1C(N)=S`: the T/C reads like this: (dose: 15.0 mg/kg/injection, schedule: Q01DX005 (ip), vehicle: Klucel + Tween-80) 99 % of control; (dose: 30.0 mg/kg/injection, schedule: Q01DX005 (ip), vehicle: Klucel + Tween-80) 101 % of control.
Consider `O=C1CSC(c2ccc(F)cc2F)N1c1nncs1` (stereo not drawn), for which the T/C by setting is: under setting [6], 92 % of control; under setting [7], 91 % of control.
Turning to `BC(=O)O`, the T/C (dose: 25.0 mg/kg/injection, schedule: Q01DX005 (ip), vehicle: saline) is 97 % of control; the T/C (dose: 50.0 mg/kg/injection, schedule: Q01DX005 (ip), vehicle: saline) is 93 % of control; the T/C (dose: 100.0 mg/kg/injection, schedule: Q01DX005 (ip), vehicle: saline) was 93 % of control; the T/C (dose: 200.0 mg/kg/injection, schedule: Q01DX005 (ip), vehicle: saline) is 106 % of control.
Turning to `O=C(O)c1n[nH]c2ccccc2c1=O`, the T/C reads like this: (dose: 1.56 mg/kg/injection, schedule: Q01DX009 (ip), vehicle: other) 101 % of control; (dose: 3.13 mg/kg/injection, schedule: Q01DX009 (ip), vehicle: other) 105 % of control; (dose: 6.25 mg/kg/injection, schedule: Q01DX009 (ip), vehicle: other) 97 % of control; (dose: 12.5 mg/kg/injection, schedule: Q01DX009 (ip), vehicle: other) 109 % of control; (dose: 25.0 mg/kg/injection, schedule: Q01DX009 (ip), vehicle: other) 110 % of control and 90 % of control.
For the compound `CCn1c2nc(=O)[nH]c(=O)c-2[n+]([O-])c2ccccc21`, the T/C reads like this: (dose: 12.5 mg/kg/injection, schedule: Q01DX001 (ip), vehicle: saline with Tween-80) 96 % of control; (dose: 25.0 mg/kg/injection, schedule: Q01DX001 (ip), vehicle: saline with Tween-80) 96 % of control; (dose: 50.0 mg/kg/injection, schedule: Q01DX001 (ip), vehicle: saline with Tween-80) 96 % of control.
